{"source": "paper PMC7006954", "about": "(Journal of medicinal chemistry, 2016)", "data": [{"target": "T1, human CD4 (CD4-YFP) expression in CHO•CD4-YFP cells (Homo sapiens, UniProt P01730)", "experiment": "not given", "settings": "read-out: IC50 (CD4 down-modulation); cited from earlier work", "units": {"IC50": "nM"}, "values": [{"smiles": "C=C1CN(S(=O)(=O)c2ccc(C)cc2)CCCN(Cc2ccccc2)CCCN(S(=O)(=O)c2ccc(C)cc2)C1", "note": "[CADA, Cyclotriazadisulfonamide]", "IC50": 400}]}, {"target": "T1, human CD4 (CD4-YFP) expression in CHO•CD4-YFP cells", "experiment": "CD4 down-modulation in CHO cells stably expressing CD4-YFP", "format": "cell-based", "settings": "50 μM compound, CD4-YFP transfected CHO cells, 24 h", "units": {"percentage CD4 down-modulation measured at highest (50 μM) compound concentration": "%"}, "values": [{"smiles": "C=C1CN(C(=O)c2ccc(N)cc2)CCCN(Cc2ccccc2)CCCN(S(=O)(=O)c2ccc(C)cc2)C1.Cl", "note": "[Compound 62]", "percentage CD4 down-modulation measured at highest (50 μM) compound concentration": 15}]}, {"target": "T1, human CD4 (CD4-YFP) expression in CHO•CD4-YFP cells", "experiment": "CD4 down-modulation in CHO cells stably expressing CD4-YFP", "format": "cell-based", "settings": "read-out: IC50 CD4 (μM) mean ± SD; 50% down-modulation of CD4 expression, CD4-YFP transfected CHO cells, 24 h drug treatment; n ≥ 3; benzyl-tailed compounds", "units": {"DC50": "µM"}, "values": [{"smiles": "C=C1CN(S(=O)(=O)c2ccc(C)cc2)CCCN(Cc2ccccc2)CCCN(S(=O)(=O)c2cccc(N)c2)C1", "note": "[Compound 44]", "DC50": "1.02 ± 0.09"}, {"smiles": "C=C1CN(S(=O)(=O)c2ccc(C)cc2)CCCN(Cc2ccccc2)CCCN(S(=O)(=O)c2ccc(SC)cc2)C1", "note": "[Compound 41, 9-Benzyl-3-methylene-1-(p-thiomethoxybenzenesulfonyl)-5-(p-toluenesulfonyl)-1,5,9-triazacyclododecane]", "DC50": "0.23 ± 0.05"}, {"smiles": "C=C1CN(S(=O)(=O)c2ccc(C)cc2)CCCN(Cc2ccccc2)CCCN(S(=O)(=O)c2ccc(O)cc2)C1", "note": "[Compound 55]", "DC50": "3.58 ± 0.54"}, {"smiles": "C=C1CN(S(=O)(=O)c2ccc(C)cc2)CCCN(Cc2ccccc2)CCCN(S(=O)(=O)c2ccc([N+](=O)[O-])cc2)C1", "note": "[Compound 27]", "DC50": "5.25 ± 1.1"}, {"smiles": "C=C1CN(C(=O)c2ccc(N)cc2)CCCN(Cc2ccccc2)CCCN(S(=O)(=O)c2ccc(C)cc2)C1.Cl", "note": "[Compound 62]", "DC50": "> 50"}, {"smiles": "C=C1CN(C(=O)c2ccc(C)cc2)CCCN(Cc2ccccc2)CCCN(S(=O)(=O)c2ccc(C)cc2)C1", "note": "[Compound 59]", "DC50": "3.78 ± 2.38"}, {"smiles": "C=C1CN(S(=O)(=O)c2ccc(C)cc2)CCCN(Cc2ccccc2)CCCN(S(=O)(=O)c2ccc(OC)cc2)C1", "note": "[Compound 50, reference compound]", "DC50": "0.29 ± 0.09"}, {"smiles": "C=C1CN(S(=O)(=O)c2ccc(C)cc2)CCCN(Cc2ccccc2)CCCN(S(=O)(=O)c2ccc3c(c2)OCO3)C1", "note": "[Compound 33]", "DC50": "1.06 ± 0.12"}, {"smiles": "C=C1CN(C(=O)c2ccc([N+](=O)[O-])cc2)CCCN(Cc2ccccc2)CCCN(S(=O)(=O)c2ccc(C)cc2)C1", "note": "[Compound 60]", "DC50": "> 50"}, {"smiles": "C=C1CN(S(=O)(=O)c2ccc(C)cc2)CCCN(Cc2ccccc2)CCCN(S(=O)(=O)c2ccc(F)cc2)C1", "note": "[Compound 37]", "DC50": "0.92 ± 0.11"}, {"smiles": "C=C1CN(S(=O)(=O)c2ccc(C)cc2)CCCN(Cc2ccccc2)CCCN(S(=O)(=O)c2ccn(C)c2)C1", "note": "[Compound 36]", "DC50": "3.17 ± 0.64"}, {"smiles": "C=C1CN(S(=O)(=O)c2ccc(C)cc2)CCCN(Cc2ccccc2)CCCN(S(=O)(=O)c2ccc3ccccc3c2)C1", "note": "[Compound 26]", "DC50": "0.55 ± 0.17"}, {"smiles": "C=C1CN(S(=O)(=O)c2ccc(C)cc2)CCCN(Cc2ccccc2)CCCN(S(=O)(=O)c2ccccc2[N+](=O)[O-])C1", "note": "[Compound 28]", "DC50": "0.7 ± 0.09"}, {"smiles": "C=C1CN(C(=O)c2ccccc2)CCCN(Cc2ccccc2)CCCN(S(=O)(=O)c2ccc(C)cc2)C1", "note": "[Compound 61]", "DC50": "7.32 ± 1.7"}, {"smiles": "C=C1CN(S(=O)(=O)c2ccc(C)cc2)CCCN(Cc2ccccc2)CCCN(S(=O)(=O)c2cccc([N+](=O)[O-])c2)C1", "note": "[Compound 34]", "DC50": "2.02 ± 0.29"}, {"smiles": "C=C1CNCCCN(Cc2ccccc2)CCCN(S(=O)(=O)c2ccc(C)cc2)C1", "note": "[Compound 49, 9-Benzyl-3-methylene-1-(p-toluenesulfonyl)-1,5,9-triazacyclododecane]", "DC50": "> 50"}, {"smiles": "C=C1CN(S(=O)(=O)c2ccc(C)cc2)CCCN(Cc2ccccc2)CCCN(S(=O)(=O)c2ccc(OC)cc2OC)C1", "note": "[Compound 30]", "DC50": "1.35 ± 0.3"}, {"smiles": "C=C1CN(S(=O)(=O)c2ccc(C)cc2)CCCN(Cc2ccccc2)CCCN(S(=O)(=O)c2ccc(N)cc2)C1", "note": "[Compound 45]", "DC50": "2.42 ± 0.42"}, {"smiles": "C=C1CN(S(=O)(=O)c2ccc(C)cc2)CCCN(Cc2ccccc2)CCCN(S(=O)(=O)c2ccccc2N)C1", "note": "[Compound 43]", "DC50": "2.12 ± 0.39"}, {"smiles": "C=C1CN(S(=O)(=O)c2ccc(C)cc2)CCCN(Cc2ccccc2)CCCN(S(=O)(=O)c2ccc(N(C)C)cc2)C1", "note": "[Compound 32]", "DC50": "0.17 ± 0.08"}, {"smiles": "C=C1CN(S(=O)(=O)c2ccc(C)cc2)CCCN(Cc2ccccc2)CCCN(S(=O)(=O)N(C)C)C1", "note": "[Compound 35]", "DC50": "1.58 ± 0.2"}, {"smiles": "C=C1CN(S(=O)(=O)c2ccc(C)cc2)CCCN(Cc2ccccc2)CCCN(S(=O)(=O)c2ccc(OC(F)(F)F)cc2)C1", "note": "[Compound 29]", "DC50": "1.2 ± 0.01"}, {"smiles": "C#CCOc1ccc(S(=O)(=O)N2CCCN(Cc3ccccc3)CCCN(S(=O)(=O)c3ccc(C)cc3)CC(=C)C2)cc1", "note": "[Compound 56]", "DC50": "0.46 ± 0.07"}, {"smiles": "C=C1CN(S(=O)(=O)c2ccc(C)cc2)CCCN(Cc2ccccc2)CCCN(S(=O)(=O)N2CCOCC2)C1", "note": "[Compound 63]", "DC50": "1.08 ± 0.1"}, {"smiles": "C=C1CN(S(=O)(=O)c2ccc(C)cc2)CCCN(Cc2ccccc2)CCCN(S(=O)(=O)c2cccc(N(C)C)c2)C1", "note": "[Compound 38]", "DC50": "0.79 ± 0.1"}, {"smiles": "C=C1CN(S(=O)(=O)c2ccc(C)cc2)CCCN(Cc2ccccc2)CCCN(S(=O)(=O)c2ccc(OC)c(OC)c2)C1", "note": "[Compound 31]", "DC50": "0.31 ± 0.06"}, {"smiles": "C=C1CN(S(=O)(=O)c2ccc(C)cc2)CCCN(Cc2ccccc2)CCCN(S(=O)(=O)c2ccc(OC(=S)N(C)C)cc2)C1", "note": "[Compound 57]", "DC50": "6.28 ± 2.04"}, {"smiles": "C=C1CN(S(=O)(=O)c2ccccc2)CCCN(Cc2ccccc2)CCCN(S(=O)(=O)c2ccc(C)cc2)C1", "note": "[Compound 25, 1-(benzenesulfonyl)-9-benzyl-3-methylene-5-(p-toluenesulfonyl)-1,5,9-triazacyclododecane]", "DC50": "1.46 ± 0.05"}, {"smiles": "C=C1CN(C(=O)c2ccc(OC)cc2)CCCN(Cc2ccccc2)CCCN(S(=O)(=O)c2ccc(C)cc2)C1", "note": "[Compound 58, 9-benzyl-3-methylene-5-(p-methoxybenzoyl)-1-(p-toluenesulfonyl)-1,5,9-triazacyclododecane]", "DC50": "4.22 ± 0.84"}]}, {"target": "T1, human CD4 (CD4-YFP) expression in CHO•CD4-YFP cells", "experiment": "CD4 down-modulation in CHO cells stably expressing CD4-YFP", "format": "cell-based", "settings": "read-out: IC50 CD4 (μM) mean ± SD; 50% down-modulation of CD4 expression, stably CD4-YFP transfected CHO cells, 24 h drug treatment; n = 3; cyclohexylmethyl-tailed compounds", "units": {"DC50": "µM"}, "values": [{"smiles": "C=C1CN(S(=O)(=O)c2ccc(C)cc2)CCCN(CC2CCCCC2)CCCN(S(=O)(=O)c2ccc(OCCCN)cc2)C1", "note": "[Compound 54]", "DC50": "> 50"}, {"smiles": "C=C1CN(S(=O)(=O)c2ccc(C)cc2)CCCN(CC2CCCCC2)CCCN(S(=O)(=O)c2ccc(OCCCC)cc2)C1", "note": "[Compound 39, 1-(p-Butoxybenzenesulfonyl)-9-cyclohexylmethyl-3-methylene-5-(p-toluenesulfonyl)-1,5,9-triazacyclododecane]", "DC50": "1.1 ± 0.13"}, {"smiles": "C=C1CN(S(=O)(=O)c2ccc(C)cc2)CCCN(CC2CCCCC2)CCCN(S(=O)(=O)c2ccc(N(C)C)cc2)C1", "note": "[Compound 40, 9-Cyclohexylmethyl-1-(p-(dimethylamino)benzenesulfonyl)-3-methylene-5-(p-toluenesulfonyl)-1,5,9-triazacyclododecane]", "DC50": "0.063 ± 0.005"}, {"smiles": "C=C1CN(S(=O)(=O)c2ccc(C)cc2)CCCN(CC2CCCCC2)CCCN(S(=O)(=O)c2ccc(OC)cc2)C1", "note": "[Compound 1, reference compound]", "DC50": "0.15 ± 0.01"}, {"smiles": "C=C1CN(S(=O)(=O)c2ccc(C)cc2)CCCN(CC2CCCCC2)CCCN(S(=O)(=O)c2ccc(N)cc2)C1", "note": "[Compound 46]", "DC50": "1 ± 0.15"}, {"smiles": "C=C1CN(S(=O)(=O)c2ccc(C)cc2)CCCN(CC2CCCCC2)CCCN(S(=O)(=O)c2ccc(OCCCN3C(=O)c4ccccc4C3=O)cc2)C1", "note": "[Compound 53]", "DC50": "0.75 ± 0.06"}, {"smiles": "C=C1CN(S(=O)(=O)c2ccc(C)cc2)CCCN(CC2CCCCC2)CCCN(S(=O)(=O)c2ccc(N3CCOCC3)cc2)C1", "note": "[Compound 48]", "DC50": "0.13 ± 0.01"}, {"smiles": "C=C1CN(S(=O)(=O)c2ccc(C)cc2)CCCN(CC2CCCCC2)CCCN(S(=O)(=O)c2ccc(OCC)cc2)C1", "note": "[Compound 52]", "DC50": "0.19 ± 0.01"}, {"smiles": "C=C1CN(S(=O)(=O)c2ccc(C)cc2)CCCN(CC2CCCCC2)CCCN(S(=O)(=O)c2ccc(O)cc2)C1", "note": "[Compound 51, 9-Cyclohexylmethyl-1-(p-hydroxybenzenesulfonyl)-3-methylene-5-(p-toluenesulfonyl)-1,5,9-triazacyclododecane]", "DC50": "1.14 ± 0.02"}, {"smiles": "C=C1CN(S(=O)(=O)c2ccc(C)cc2)CCCN(CC2CCCCC2)CCCN(S(=O)(=O)c2ccc(-n3cccc3)cc2)C1", "note": "[Compound 47]", "DC50": "0.18 ± 0.01"}]}]}
